Laboratory results published in the supplement of paper PMC9386025.

What was measured:
Assay in all cases: drug sensitivity score (DSS) (DSS (dimensionless)); higher = more sensitive (stronger drug response)
[1] = test system: FIMM-PDC7 (patient-derived ovarian cancer cells); conditions: genetic perturbation: none (patient-derived cell culture)
In short: (§1)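 Ovarian cancer cell lines with shRNA induced by 100 ng/ml doxycycline for at least three days, along with patient-derived cultures, were seeded at 1 000 – 1 500 cells per well onto drugs pre-plated in 384-well plates at five concentrations over a 10,000-fold range and incubated for three days at 37 °C and 5.0 % CO2. CellTiter-Glo luminescence measured on a PHERAstar FS served as the viability readout, and each drug's dose-response curve was summarised as a drug sensitivity score following an earlier published method.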

[2] = test system: FIMM-PDC1 (patient-derived ovarian cancer cells); conditions: genetic perturbation: none (patient-derived cell culture)
In short: as §1

[3] = test system: JHOS2
In short: as §1

[4] = test system: FIMM-PDC3 (patient-derived ovarian cancer cells); conditions: genetic perturbation: none (patient-derived cell culture)
In short: as §1

[5] = test system: FIMM-PDC6 (patient-derived ovarian cancer cells); conditions: genetic perturbation: none (patient-derived cell culture)
In short: as §1

[6] = test system: FIMM-PDC5 (patient-derived ovarian cancer cells); conditions: genetic perturbation: none (patient-derived cell culture)
In short: as §1

[7] = test system: FIMM-PDC4 (patient-derived ovarian cancer cells); conditions: genetic perturbation: none (patient-derived cell culture)
In short: as §1

[8] = test system: OVSAHO
In short: as §1

[9] = test system: Kuramochi
In short: as §1

[10] = genetic perturbation: DOX-induced PTK7 shRNA knockdown
[11] = genetic perturbation: DOX-induced control shRNA

| Structure (SMILES) | drug sensitivity score [1] | drug sensitivity score [2] | drug sensitivity score [3, 10] | drug sensitivity score [3, 11] | drug sensitivity score [4] | drug sensitivity score [5] | drug sensitivity score [6] | drug sensitivity score [7] | drug sensitivity score [8, 10] | drug sensitivity score [8, 11] | drug sensitivity score [9, 10] | drug sensitivity score [9, 11] |
| --- | --- | --- | --- | --- | --- | --- | --- | --- | --- | --- | --- | --- |
| CN(CC(=O)N(Cc1ccc(C2CCCCC2)cc1)c1ccc(C(=O)O)cc1)S(=O)(=O)c1c(F)c(F)c(F)c(F)c1F [SH-4-54] | 9.2 | 4 | 4.6 | 3.7 | 6 | 7.6 | 5.1 | 7 | 5.2 | 5.4 | 6.1 | 4.7 |
| CCc1c2c(nc3ccc(O)cc13)-c1cc3c(c(=O)n1C2)COC(=O)[C@]3(O)CC [SN-38] | 21.3 | 23.5 | 26.1 | 22.5 | 26.6 | 28.9 | 29.7 | 19.2 | 21 | 16.4 | 21 | 8.6 |
| CC(C)(C)c1cnc(CSc2cnc(NC(=O)C3CCNCC3)s2)o1 [SNS-032] | 19.1 | 18.6 | 19.9 | 16.9 | 16.9 | 19.2 | 24.7 | 20 | 17.5 | 15.9 | 16.9 | 17.2 |
| Cc1cc2c(C(=O)NC[C@H](C)c3ccccc3)c(O)c(O)cc2c(O)c1-c1c(C)cc2c(C(=O)NC[C@H](C)c3ccccc3)c(O)c(O)cc2c1O [Sabutoclax] | 3.8 | 4.75 | 11.1 | 10.8 | 11.8 | 6.4 | 5.2 | 6.9 | 4.7 | 6.5 | 7.8 | 6.8 |
| CC[C@@H](C(=O)[C@@H](C)[C@@H](O)[C@H](C)[C@@H]1O[C@@H]([C@@H](CC)C(=O)O)CC[C@@H]1C)[C@H]1O[C@]2(C=C[C@@H](O)[C@]3(CC[C@@](C)([C@H]4CC[C@](O)(CC)[C@H](C)O4)O3)O2)[C@H](C)C[C@@H]1C [Salinomycin] | 14.7 | 11.6 | 24.2 | 15.5 | 18.8 | 8.1 | 18.4 | 16.8 | 29.2 | 4.8 | 19.4 | 21.6 |
| CC(C)n1nc(-c2ccc3oc(N)nc3c2)c2c(N)ncnc21 [Sapanisertib] | 16.3 | 7.5 | 6.9 | 9.3 | 7.6 | 16.3 | 21.2 | 15.4 | 14 | 11.6 | 10.1 | 10.7 |
| CNC(=O)CN1CCC(Oc2cc3c(Nc4cccc(Cl)c4F)ncnc3cc2OC)CC1 [Sapitinib] | 10.1 | 0.6 | < 0 | < 0 | 8.8 | 11.4 | 16.5 | 16.3 | < 0 | < 0 | 0.5 | < 0 |
| CN1CCN(CCOc2cc(OC3CCOCC3)c3c(Nc4c(Cl)ccc5c4OCO5)ncnc3c2)CC1 [Saracatinib] | 5.8 | 4.6 | 1.4 | 7.3 | 12 | 9.4 | 15.2 | 13.7 | 12.4 | 6.6 | 10.6 | 5.2 |
| O=C(/C=C\n1cnc(-c2cc(C(F)(F)F)cc(C(F)(F)F)c2)n1)NNc1cnccn1 [Selinexor] | 19.5 | 12.4 | 18.8 | 14.5 | 22.4 | 24.4 | 20.1 | 17.1 | 14.8 | 7.4 | 9.85 | 13.5 |
| Cn1cnc2c(F)c(Nc3ccc(Br)cc3Cl)c(C(=O)NOCCO)cc21 [Selumetinib] | 10.3 | < 0 | 0.7 | 8.6 | 4.9 | 7.6 | 11.4 | 10 | 13.5 | 1.7 | 7.5 | 2 |
| Nc1nc2cc(-c3ccc4ncc(C(=O)N5CCOCC5)n4c3)ccc2o1 [Serabelisib] | 9.1 | 0.6 | 0.9 | 0.2 | 0.6 | 3.1 | 5.2 | 4.1 | 0.8 | < 0 | < 0 | < 0 |
| O=C(O)c1ccc2c(c1)nc(Nc1cccc(Cl)c1)c1ccncc12 [Silmitasertib] | 2.8 | 3.2 | 3.3 | 3.6 | 4.8 | < 0 | 6.6 | 1.5 | 5.5 | 5.8 | 5.55 | 4.5 |
| CCS(=O)(=O)c1cccc(-c2cc(C(=O)NC3CCN(C)CC3)c(C)c3[nH]c4ncc(C)cc4c23)c1 [TAK-901] | 3 | 4.85 | 3.2 | 5.3 | 4.3 | 7.3 | 6.5 | 7.9 | 8.3 | 5.7 | 7.3 | 6.4 |
| COc1cc(Nc2ncc(F)c(Nc3ccc4c(n3)NC(=O)C(C)(C)O4)n2)cc(OC)c1OC [Tamatinib] | 8.6 | < 0 | 4.2 | 0.1 | 3.8 | 1.6 | 12.9 | 6.4 | 7 | 1.1 | 2.9 | 1.1 |
| Cc1nc(-c2cn3c(n2)-c2ccc(-c4cnn(C(C)(C)C(N)=O)c4)cc2OCC3)n(C(C)C)n1 [Taselisib] | 12.3 | 4.2 | 4.3 | 2.4 | 6.7 | 6.3 | 11.6 | 9.5 | 3.1 | 4.7 | 4.5 | 1.1 |
| CO[C@H]1C[C@@H]2CC[C@@H](C)[C@@](O)(O2)C(=O)C(=O)N2CCCC[C@H]2C(=O)O[C@H]([C@H](C)C[C@@H]2CC[C@@H](OC(=O)C(C)(CO)CO)[C@H](OC)C2)CC(=O)[C@H](C)/C=C(\C)[C@@H](O)[C@@H](OC)C(=O)[C@H](C)C[C@H](C)/C=C/C=C/C=C/1C [Temsirolimus] | 4 | 2.25 | < 0 | 7.2 | 2.8 | 5.7 | 12.2 | 8.7 | 2.3 | 6.6 | 4.5 | 2.7 |
